Test results reported in patent publication US8058039B2 (North American Bioproducts Corporation, priority 2008, dated 2011).
Where “and” joins values, the source holds several entries; their conditions need not be identical. Equal entries are not always repeated.

Experiments:
Assay type in all cases: cell-based
[1] = system: Pediococcus test organism along with “industry normal” Lactobacillus; assay: Virginiamycin (V100) vs. Erythromycin (V200) comparative efficacy analysis, 24 well plate growth test in MRS broth; settings: 33° C., read at 24 and 48 hours
From the text: (§1) The antibiotics currently most often used at alcohol production plants are either Penicillin-based or Virginiamycin-based. This example compares the use of Bactenix V200, an Erythromycin-based antibiotic versus V100, a Virginiamycin-based antibiotic also available from NABC to control Pediococcus test organism along with “industry normal” Lactobacillus. The trial uses an alcohol water mixture to assure total dissolving of antibiotics. This assures that the correct concentrations of antibiotics are going into the test wells and thereby preventing under dosing during the trial. All bacteria tested were industry specific isolates that were obtained from actual mash samples from alcohol production plants. The trial was set up as follows: • 1. Dissolve 0.1 g of each of the antibiotics in 1 ml water and then add 5 ml of ethanol, vortex and bring up to 10 ml with sterile water to from a suspension. • 2. Dilute the previous suspension 1:10 with sterile water. This gives a one mg/ml concentration. • 3. Filter the suspension by running through a 0.2 μm syringe filter. • 4. Add antibiotics to MRS (DeMan, Rogosa and Sharpe) broth at the concentrations required for the test. • 5. Take two μl of a fresh 24-hour culture of the target organisms and add to the corresponding empty wells in a pre-labeled 24 well tissue culture plate. • 6. Add one ml of the appropriate antibiotic media to each well of the plate. • 7. Incubate at 33° C. for 24 hours. • 8. Read plates for bacterial growth and re-incubate the plates at 33° C. • 9. After 48 hours read and report the final results.

[2] = system: Saccharomyces cerevisea yeast (BioFerm XR yeast); assay: Impact of Erythromycin on the function and replication of yeast during lab scale corn mash fermentation; settings: for Cell Count: number of cells in a given area
Description: A study was conducted to determine if the fermentation antimicrobial Erythromycin, interfered with cell growth and the fermentation function of Saccharomyces cerevisea yeast used in the fermentation phase of the production of fuel ethanol. […] This study looked at the ability of yeast to replicate and ferment a corn mash substrate with and without the presence of Erythromycin.
This study was set up in a series of fermentation vessels. All antibiotic concentrations were tested in triplicate. Cell counts were done on one flask for each treatment at 24 and 48 hours and final testing of the fermentation reactions by HPLC was performed at 48 hours. The experiment was set as follows:
1. Antibiotic solutions were prepared to provide a sterile 1 and 10 μg/ml solutions.
2. Antibiotic solutions tested were as follows:
A. Control (NA), no antibiotic
3. Fermentations were set up using 31% solids corn mash using saccharifying enzymes and the following procedure:
A. Yeast Conditioning: • 1. Add 2 g yeast to 10 mil sterile water for each 3 flasks to test, (10 g yeast to 50 ml water) into a sterile 250 ml flask and place in water bath set to 100° F. • 2. Incubate at 100° F. for 30 minutes with occasional mixing. • 3. Remove flasks from water bath and divide suspension between the all flasks for the trial.
B. Fermentation Procedure • 1. To prepared mash, add the following. • a. Add 0.58 g urea/liter mash and mix. • b. Add 0.2 ml GA per liter and mix. • 2. Remove sample for background HPLC testing. • 3. Add antibiotic solution to labeled sterile 250 ml flasks. • 4. Add hydrated yeast suspension to mash and mix well. • 5. Add sterile stir bar to each flask and add about 150 ml mash into each 250 ml flask for a total of 12 flasks. • Three flasks for each trial as follows: • a. First group, no antibiotic (NA) flasks 1-3 • b. […] Cover each flask with a gas trap in a sterilized stopper. • 7. Place in a 33° C. water bath with continuous mixing at 280 rpm at 75% power. • a. Turn power on to the magnetic stirrers after placing the flasks onto the platforms to move the stir bars; make sure that mixing is occurring in the flasks. • 8. Remove sample at 24 hours and perform cell count. • 9. Incubate sample for 48 hours, enough time for complete fermentation • 10. Collect samples at the following times for HPLC testing: • 0 hours (one per treatment); 24 hours; 48 hours • Perform 48 hour cell count on same flask as for 24 hour count.

[3] = system: bacteria encountered in ethanol production; assay: Alcohol production plant trial, fermentor drop data (corn, batch fermentation)
Description: This trial was conducted at a 50 million gallon per year (m/g/y) dry grind fuel alcohol production facility utilizing corn as a fermentation substrate. Batch yeast propagation and fermentation process were utilized. Antimicrobials were added to the fermentor during the fill cycle at approximately 30% fill. No other changes were made to the process or chemical additions that would influence the fermentation kinetics monitored during 3 sets of fermentor batches listed below. The fermentation data was accumulated at the end (drop) of the fermentation process for each of the fermentors. […] See results in Table 2. […] See results in Table 3. […] See results in Table 4.

[4] = system: industry obtained Pediococcus bacteria; assay: Virginiamycin (V100) vs. Erythromycin (V200) comparative efficacy analysis, 24 well plate growth test in MRS broth; settings: 33° C., read at 24 and 48 hours
From the text: as §1

[5] = 0.5 ppm Erythromycin vs 0.5 ppm Virginiamycin batches
[6] = Set 2 vs Sets 1 and 3, same amount of antibiotic
[7] = Set 2 “Erythromycin trial”, 0.5 ppm Erythromycin, at drop
[8] = Set 1 “Pre Erythromycin trial”, 0.5 ppm Virginiamycin, at drop
[9] = Set 3 “Post Erythromycin test”, 0.5 ppm Virginiamycin, at drop
[10] = Set 3 “Post Erythromycin test”, 0.5 ppm Virginiamycin, single fermentor batch at drop

`CC[C@H]1OC(=O)[C@H](C)[C@@H](O[C@H]2C[C@@](C)(OC)[C@@H](O)[C@H](C)O2)[C@H](C)[C@@H](O[C@@H]2O[C@H](C)C[C@H](N(C)C)[C@H]2O)[C@](C)(O)C[C@@H](C)C(=O)[C@H](C)[C@@H](O)[C@]1(C)O` [Erythromycin] was tested, and the “concentration effective against all organisms tested” value [1] was 0.5 ppm, the “% Budding” value ([2]; Erythromycin 5 ppm, 24 hr) was 8% and the “% Viable” value ([2]; Erythromycin 5 ppm, 24 hr) was 82%. The “Cell Count” value ([2]; Erythromycin 5 ppm, 24 hr) was 467, the “% Budding” value ([2]; Erythromycin 5 ppm, 48 hr) was 5% and the “% Viable” value ([2]; Erythromycin 5 ppm, 48 hr) was 63%. The “Cell Count” value ([2]; Erythromycin 5 ppm, 48 hr) was 430, the “% Budding” value ([2]; Erythromycin 10 ppm, 24 hr) was 8% and the “% Viable” value ([2]; Erythromycin 10 ppm, 24 hr) was 80%. The “Cell Count” value ([2]; Erythromycin 10 ppm, 24 hr) was 434, the “% Budding” value ([2]; Erythromycin 10 ppm, 48 hr) was 5% and the “% Viable” value ([2]; Erythromycin 10 ppm, 48 hr) was 61%. For the same molecule, the “Cell Count” value ([2]; Erythromycin 10 ppm, 48 hr) was 454, the “% Budding” value ([2]; Erythromycin 20 ppm, 24 hr) was 7% and the “% Viable” value ([2]; Erythromycin 20 ppm, 24 hr) was 85%. For the same molecule, the “Cell Count” value ([2]; Erythromycin 20 ppm, 24 hr) was 431, the “% Budding” value ([2]; Erythromycin 20 ppm, 48 hr) was 4% and the “% Viable” value ([2]; Erythromycin 20 ppm, 48 hr) was 62%. The “Cell Count” value ([2]; Erythromycin 20 ppm, 48 hr) was 446, the “yeast growth with Erythromycin present vs without” value ([2]; at 48 hr) was “marginal better” and the “adverse effect on the yeast” value ([2]; used up to 20 ppm) was “no discernable adverse effect”. The “decrease of lactic acid production during the erythromycin trial” value [3, 5] was 0.23%, the “increase of ethanol production during the erythromycin trial” value [3, 5] was 0.17% and the “production increase of ethanol per fermentor” value [3, 5] was 816 gallons of ethanol per fermentor. For the same molecule, the “final ethanol production compared to Virginiamycin fermentors” value [3, 6] was “increase in final ethanol production”, the “glucose utilized compared to Virginiamycin fermentors” value [3, 6] was “utilized the same amount of glucose” and the “lactic acid compared to Virginiamycin fermentors” value [3, 6] was “decrease in lactic acid”. The “Acetic %, 27 batch average” value [3, 7] was 0.04%, the “EtOH %, 27 batch average” value [3, 7] was 15.84% and the “Glucose %, 27 batch average” value [3, 7] was 0.30%. For the same molecule, the “Lactic %, 27 batch average” value [3, 7] was 0.27% and the Acetic % ([3]; Set 2 “Erythromycin trial”, 0.5 ppm Erythromycin, single fermentor batch at drop) was 0.03% and 0.04% and 0.05% and 0.02% and 0.06%.
Virginiamycin was tested, and the “inclusion rate up to which Pediococcus was not controlled” value [4] was greater than 3.0 ppm, the “effectiveness against all organisms tested” value [1] was “not effective against all organisms tested” and the “Acetic %, 28 batch average” value [3, 8] was 0.04%. For the same molecule, the “EtOH %, 28 batch average” value [3, 8] was 15.67%, the “Glucose %, 28 batch average” value [3, 8] was 0.29% and the “Lactic %, 28 batch average” value [3, 8] was 0.50%. The Acetic % ([3]; Set 1 “Pre Erythromycin trial”, 0.5 ppm Virginiamycin, single fermentor batch at drop) was 0.02% and 0.03% and 0.04% and 0.13% and 0.05%, the “Acetic %, 8 batch average” value [3, 9] was 0.04% and the “EtOH %, 8 batch average” value [3, 9] was 15.58%. For the same molecule, the “Glucose %, 8 batch average” value [3, 9] was 0.32%, the “Lactic %, 8 batch average” value [3, 9] was 0.47% and the Acetic % [3, 10] was 0.04% and 0.03% and 0.05%. The EtOH % [3, 10] was 15.77% and 15.53% and 15.28% and 15.73% and 15.78% and 15.5% and 15.56% and 15.52%, the Glucose % [3, 10] was 0.35% and 0.29% and 0.31% and 0.33% and 0.3% and 0.32% and the Lactic % [3, 10] was 0.44% and 0.54% and 0.70% and 0.38% and 0.43% and 0.50% and 0.40%.
